Source: patent US5925529A, “Method for discovery of peptide agonists” (The Regents of the University of California, priority 1995, dated 1999)
“Also recorded” adds a separate entry of the source.

Columns and labels:
[1] = tested on: uninjected oocytes; test: 45Ca release in uninjected Xenopus oocytes (control for receptor dependence); type: cell-based, Xenopus laevis
Method: (§1) Xenopus oocytes were harvested from female Xenopus laevis and processed using published techniques. Coleman, A., In Transcription and Translation: A Practical Approach, Oxford: IRL Press, pp. 271-302 (1984); Williams et al., PNAS 85: 4939-4943 (1988). To remove follicular cells, oocytes were incubated for 4 hr at room temperature with 1 mg/ml Sigma type II collagenase in modified Barth's solution (MBSH) without Ca^2+, then washed and incubated overnight at 18° C. in MBSH II (MBSH containing 1 mg/ml bovine serum albumin, 1 ml/ml Ficoll, 100 U/ml penicillin, 100 μg/ml streptomycin, and 50 μg/ml gentamicin). Dumont stage V oocytes were selected and microinjected with 5 to 50 nl of mRNA (1 μg/μl in 10 mM HEPES, pH 7.0). Microinjected oocytes were cultured for 24 hr at 18° C. in MBSH then selected for functional assays.
(§2) Agonist-induced increases in ^45 Ca^2+ release were assessed by published techniques. Williams et al., PNAS 85:4939-4943 (1988). […] The harvested medium was analyzed by scintillation counting to determine ^45 Ca^2+ release by the oocytes during each 10 min incubation. […] At this point, two additional 10 min collections were obtained, then medium including agonist was added and agonist-induced ^45 Ca^2+ release determined. […]

[2] = biological target: T1, wild type human thrombin receptor (Homo sapiens, UniProt P25116); test: Agonist-induced 45Ca release from Xenopus oocytes expressing the wild type thrombin receptor; type: cell-based; details: Xenopus oocytes expressing epitope tagged wild type human thrombin receptor; compared with SFLLR peptide (FIG. 5A)
T1 construct: expressed in transfected cells; host or cells: Xenopus laevis oocytes (cRNA)
T1 sequence (P25116 22-425): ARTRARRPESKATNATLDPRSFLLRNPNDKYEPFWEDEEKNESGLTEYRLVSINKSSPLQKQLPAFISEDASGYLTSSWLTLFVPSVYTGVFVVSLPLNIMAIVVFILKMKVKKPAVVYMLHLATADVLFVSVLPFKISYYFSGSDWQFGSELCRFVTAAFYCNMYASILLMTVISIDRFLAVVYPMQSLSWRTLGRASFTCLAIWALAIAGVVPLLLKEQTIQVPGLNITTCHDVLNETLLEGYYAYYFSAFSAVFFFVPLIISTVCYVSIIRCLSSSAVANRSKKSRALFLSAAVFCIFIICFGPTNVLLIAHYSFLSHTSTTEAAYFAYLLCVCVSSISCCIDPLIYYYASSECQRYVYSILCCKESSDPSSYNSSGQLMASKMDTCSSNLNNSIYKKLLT
Method: as §1, §2

[3] = biological target: T2, Human fMLF receptor (Homo sapiens, UniProt P21462); test: Agonist-induced 45Ca release from Xenopus oocytes expressing the formyl peptide receptor; type: cell-based; details: Xenopus oocytes injected with human fMLF receptor cRNA; compared with fMLF (FIG. 2)
T2 construct: expressed in transfected cells; host or cells: Xenopus laevis oocytes microinjected with cRNA
T2 sequence (P21462 1-350): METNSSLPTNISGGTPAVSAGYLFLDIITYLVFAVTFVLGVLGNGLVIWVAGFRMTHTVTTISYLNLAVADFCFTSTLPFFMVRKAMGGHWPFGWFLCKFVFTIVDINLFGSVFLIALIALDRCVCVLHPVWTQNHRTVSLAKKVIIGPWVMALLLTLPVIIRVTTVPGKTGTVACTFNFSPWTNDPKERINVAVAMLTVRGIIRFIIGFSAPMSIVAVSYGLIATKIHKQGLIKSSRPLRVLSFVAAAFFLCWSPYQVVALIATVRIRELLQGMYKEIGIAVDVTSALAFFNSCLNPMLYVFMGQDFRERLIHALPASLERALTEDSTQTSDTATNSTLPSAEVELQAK
Method: as §1, with “Dumont stage V oocytes were selected and microinjected with 5 to 50 nl of mRNA (1 μg/μl in 10 mM HEPES, pH 7.0). Microinjected oocytes were cultured for 24 hr at 18° C. in MBSH then selected for functional assays.” left out
Agonist-induced increases in ^45 Ca^2+ release were assessed by published techniques. […] The harvested medium was analyzed by scintillation counting to determine ^45 Ca^2+ release by the oocytes during each 10 min incubation. […] At this point, two additional 10 min collections were obtained, then medium including agonist was added and agonist-induced ^45 Ca^2+ release determined.
Formyl peptide receptor response to its classical agonist fMLF (SEQ ID NO:12) and to the new agonist derived from tethered ligand library. […] Xenopus oocytes were microinjected with 5 ng cRNA transcribed from this construct, cultured for 24 hours, and ^45 Ca release in response to the indicated concentration of peptides was measured as described above.

[4] = tested on: formyl peptide receptor; details: compared with f-MLF; cited from earlier work

| Substance | signaling (45Ca release) in uninjected oocytes [1] | agonist activity / signaling (45Ca release) at the thrombin receptor [2] | agonist activity / signaling (45Ca release) at the formyl peptide receptor [3] | activity of the unformylated peptide relative to f-MLF (fold less activity) [4] |
| --- | --- | --- | --- | --- |
| GFIYF | did not cause signaling | nearly as effective as the SFLLR; also recorded: receptor-dependent | did not cause signaling |  |
| MLF |  |  |  | at least 1000 fold |
